In patent publication US11498928B2, “Macrocyclic spiroethers as Mcl-1 inhibitors” (ASCENTAGE PHARMA (SUZHOU) CO., LTD., priority 2019, dated 2022):
Like-named read-outs stand apart in the source and are kept apart here.

Assays:
OPM-2 cells = test: Cell viability assay (OPM-2 cells), CCK-8; format: cell-based; details: 5% FBS
Description: OPM-2 cells were obtained from Deutsche Sammlung von Mikroorganismen and Zellkulturen GmbH (DSMZ). Cells were maintained in the recommended culture medium with 10% FBS at 37° C. and an atmosphere of 5% CO2.
The effect of representative Compounds of the Disclosure on cell viability was determined using Cell Counting Kit-8 (CCK-8) assay (Shanghai Life iLab Bio Technology) according to the manufacturer's instructions. Each tested compound was serially diluted in culture medium, 100 μL of the compound dilution was added into 96-well plates. 100 μL of an OPM-2 cell suspension (20000 cells/well) in culture medium were seeded into the corresponding well of the plate and the cells were incubated at 37° C. in an atmosphere of 5% CO2 for 24 hours. In the next day, 20 μL of CCK-8 solution was added to each well of the plate and incubated for 4 hours.
The plates were read at 450 nm on the microplate spectrophotometer (SpectraMax plus 384, Molecular devices). The readings were normalized to the vehicle cells, and the IC50 was calculated by nonlinear regression analysis using GraphPad Prism 6 software.

[1] = target: T1, Mcl-1 protein (residues 171-323) (Homo sapiens, UniProt Q07820); test: Inhibition of Mcl-1 by fluorescence polarization (FP) competitive binding assay with FAM-Bid tracer; details: 2 nM FAM-Bid, 20 nM Mcl-1, 30 min
T1 construct: Tag-free Mcl-1 protein (residues 171-323) was used in the FP assay
T1 sequence (Q07820 171-323): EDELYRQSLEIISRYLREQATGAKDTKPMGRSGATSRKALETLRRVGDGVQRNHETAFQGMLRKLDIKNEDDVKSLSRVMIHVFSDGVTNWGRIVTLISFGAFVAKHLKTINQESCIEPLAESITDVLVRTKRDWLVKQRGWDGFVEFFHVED
Description: Inhibition of Mcl-1 by Fluorescence Polarization (FP) Assay.
The relative binding potency of representative Compounds of the Disclosure was determined by a fluorescence polarization (FP) assay (Long et al, BMC Biotechnology 13:45 (2013)). The method used a fluorescein labelled peptide (FAM-Bid) which binds to the Mcl-1 protein leading to an increased anisotropy measured in milli-polarization (mP) values using a plate reader. […] Tag-free Mcl-1 protein (residues 171-323) was used in the FP assay (Mady et al, Scientific Reports 8: 10210-10210 (2018); Yang et al, ACS Med. Chem. Lett. 3:308-312 (2012)).
A 10-points serial dilution of each compound was prepared in DMSO and 5 μL solution was transferred into flat bottomed, 96-well back plate (final DMSO concentration 5%). 120 μL of Buffer (PBS, 0.01% BGG (Sigma Cat. #SRE0011), 0.01% Triton X-100), containing the Fluorescein labelled peptide (Final concentration 2 nM) and Mcl-1 protein (final concentration 20 nM) was then added. Assay plates were incubated 30 mins at room temperature with gentle shaking before FP was measured on a Biotek Synergy 1MF reader (Ex. 485 nm, Em. 528 nm, Cut off 510 nm) and mP calculated. The binding of increasing doses of test compounds was expressed as a percentage reduction in mP compared to a window established between 5% DMSO only and 100% inhibition controls (no Mcl-1 protein). 10-points dose response curves were plotted with GraphPad software using Sigmoidal Dose-Response Model and the IC50 values were determined by nonlinear regression fitting of the competition curves. Cell Viability Assay (NCI-H929 cells)

NCI-H929 cells = test: Cell viability assay (NCI-H929 cells), CCK-8; format: cell-based; details: 5% FBS
Description: NCI-H929 cells were obtained from American Type Culture Collection (ATCC). Cells were maintained in the recommended culture medium (RPMI 1640) with 10% FBS and 0.05 mM BME at 37° C. and an atmosphere of 5% CO2.
The effect of Compounds on cell viability was determined using Cell Counting Kit-8 (CCK-8) assay according to the manufacturer's instructions. 95 μL of NCI-H929 cell suspension (20000 cells/well) in culture medium were seeded into 96-well plates and cultured 4 hrs. Each tested compound was serially diluted in DMSO, then 5 μL of the compound or DMSO was diluted in 95 μL medium once more. At last, 5 μL of the compound dilution was added to the corresponding well of the cell plate. After the addition of the tested compound, the cells were incubated at 37° C. in an atmosphere of 5% CO2 for 24 hrs. At the end, 10 μL of CCK-8 solution was added to each well of the plate and incubated for 1-4 hours. The plates were read at 450 nm on the microplate reader (BioTek Synergy 1MF). The readings were normalized to the vehicle cells, and the IC50 was calculated by nonlinear regression analysis using GraphPad Prism 6 software. Cell Viability Assay (OPM-2 cells)

[2] = Pharmacokinetic studies in mice (IV and PO); format: in vivo; details: for MRT last: read-out: MRT0-last
Description: Administration: Mice in the IV group was dosed at 2 mg/kg (20% PEG 400+10% Cremophor EL+70% PBS 7.4) via tail vein injection (N=9). Mice in the PO group was dosed at 10 mg/kg (20% PEG 400+10% Cremophor EL+70% PBS 7.4) via oral gavage (N=9). All the mice were fasted overnight before dosing and had free access to food 4 hr post dosing.
Sampling: The animal was restrained manually at the designated time points (0.083, 0.25, 0.5, 1, 2, 4, 6, 8 and 24 hr), approximately 110 μL of blood sample was collected via retro-orbital puncture or cardiac puncture for terminal bleeding under the anesthesia with Isoflurane inhalation into K2EDTA tubes. The blood samples were maintained in wet ice first and centrifuged to obtain plasma (2000 g, 4° C., 5 min) within 15 minutes post sampling. All the plasma samples were stored at approximately −70° C. until analysis.

SMILES	IC50 (OPM-2 cells; Homo sapiens, OPM-2, 24 h) [µM]	IC50 [1] [µM]	IC50 (NCI-H929 cells; Homo sapiens, NCI-H929, 24 h) [µM]	IC50 (OPM-2 cells; 24 h) [µM]	IC50 (NCI-H929 cells; 24 h) [µM]	further results
CO[C@@H]1C2=CC(C2)CC(C)S(=O)(=O)NC(=O)c2ccc3c(c2)N(C[C@@H]2CC[C@H]21)C[C@@]1(CCCc2cc(Cl)ccc21)CO3 (mixture of isomers) [7 (mixture)]	5.58	0.0051	2.3			
CO[C@H]1C2=CC(C2)CC(C)S(=O)(=O)NC(=O)c2ccc3c(c2)N(C[C@@H]2CC[C@H]21)C[C@@]1(CCCc2cc(Cl)ccc21)CO3 (mixture of isomers) [11 (mixture)]	0.967	0.0055	0.27			
CO[C@@H]1C2=CC(C2)CC(C)S(=O)(=O)NC(=O)c2ccc3c(c2)N(C[C@@H]2CC[C@H]21)C[C@@]1(CCCc2cc(Cl)ccc21)CO3 (single isomer, unassigned) [7 (Isomer 1)]		0.0042		1.12	0.6	
CO[C@@H]1C2=CC(C2)CC(C)S(=O)(=O)NC(=O)c2ccc3c(c2)N(C[C@@H]2CC[C@H]21)C[C@@]1(CCCc2cc(Cl)ccc21)CO3 (single isomer, unassigned) [7 (Isomer 2)]		0.0042		2.96	1.9	
CO[C@H]1C2=CC(C2)CC(C)S(=O)(=O)NC(=O)c2ccc3c(c2)N(C[C@@H]2CC[C@H]21)C[C@@]1(CCCc2cc(Cl)ccc21)CO3 (single isomer, unassigned) [11 (Isomer 1)]		0.0065		0.087	0.086	
CO[C@H]1C2=CC(C2)CC(C)S(=O)(=O)NC(=O)c2ccc3c(c2)N(C[C@@H]2CC[C@H]21)C[C@@]1(CCCc2cc(Cl)ccc21)CO3 (single isomer, unassigned) [11 (Isomer 2)]		0.006		3.86	2.24	
CO[C@H]1C2=CC(C2)[C@@H](C)[C@H](C)S(=O)(=O)NC(=O)c2ccc3c(c2)N(C[C@@H]2CC[C@H]21)C[C@@]1(CCCc2cc(Cl)ccc21)CO3 (single isomer, unassigned) [12 (Isomer 1)]	17.2	0.0048			> 10	
CO[C@H]1C2=CC(C2)[C@@H](C)[C@H](C)S(=O)(=O)NC(=O)c2ccc3c(c2)N(C[C@@H]2CC[C@H]21)C[C@@]1(CCCc2cc(Cl)ccc21)CO3 (single isomer, unassigned) [12 (Isomer 2)]		0.015		12.3	4.6	
CO[C@H]1C2=C[C@@H](C2)[C@H](C)[C@@H](C)S(=O)(=O)NC(=O)c2ccc3c(c2)N(C[C@@H]2CC[C@H]21)C[C@@]1(CCCc2c1ccc(Cl)c2F)CS3 (single isomer, unassigned) [22 (isomer 1)]	0.567	0.013	0.7			
CO[C@H]1C2=C[C@@H](C2)[C@H](C)CS(=O)(=O)NC(=O)c2ccc3c(c2)N(C[C@@H]2CC[C@H]21)C[C@@]1(CCCc2c1ccc(Cl)c2F)CS3 (single isomer, unassigned) [24 (isomer 1)]	0.67	0.0064	0.66			
CO[C@H]1C2=C[C@H](C2)[C@H](C)CS(=O)(=O)NC(=O)c2ccc3c(c2)N(C[C@@H]2CC[C@H]21)C[C@@]1(CCCc2c1ccc(Cl)c2F)CS3 (single isomer, unassigned) [24 (isomer 2)]	3.3	0.0048	4.3			
CO[C@H]1C2=CC(C2)[C@H](C)N(C)S(=O)(=O)NC(=O)c2ccc3c(c2)N(C[C@@H]2CC[C@H]21)C[C@@]1(CCCc2cc(Cl)ccc21)CO3 (single isomer, unassigned) [26 (isomer 1)]		0.014		0.412	0.16	
CO[C@H]1C2=CC(C2)[C@H](C)N(C)S(=O)(=O)NC(=O)c2ccc3c(c2)N(C[C@@H]2CC[C@H]21)C[C@@]1(CCCc2cc(Cl)ccc21)CO3 (single isomer, unassigned) [26 (isomer 2)]		0.0033		2.24	2.26	
CO[C@@H]1C2=CC(C2)[C@H](C)N(C)S(=O)(=O)NC(=O)c2ccc3c(c2)N(C[C@@H]2CC[C@H]21)C[C@@]1(CCCc2cc(Cl)ccc21)CO3 (single isomer, unassigned) [27 (isomer 1)]		0.013		1.44	1.6	
CO[C@@H]1C2=CC(C2)[C@H](C)N(C)S(=O)(=O)NC(=O)c2ccc3c(c2)N(C[C@@H]2CC[C@H]21)C[C@@]1(CCCc2cc(Cl)ccc21)CO3 (single isomer, unassigned) [27 (isomer 2)]		0.0034		3.61	5	
CO[C@H]1C2=C[C@H](C2)[C@H](C)N(C[C@@H]2CCCO2)S(=O)(=O)NC(=O)c2ccc3c(c2)N(C[C@@H]2CC[C@H]21)C[C@@]1(CCCc2cc(Cl)ccc21)CO3 (single isomer, unassigned) [30 (isomer 1)]	2.31	0.0062	2.9			
CO[C@H]1C2=C[C@H](C2)[C@H](C)N(C[C@H]2CCCO2)S(=O)(=O)NC(=O)c2ccc3c(c2)N(C[C@@H]2CC[C@H]21)C[C@@]1(CCCc2cc(Cl)ccc21)CO3 (single isomer, unassigned) [30 (isomer 2)]	4.77	0.0051	4.7			
CO[C@H]1C2=C[C@@H](C2)[C@H](C)N(C[C@@H]2CCCO2)S(=O)(=O)NC(=O)c2ccc3c(c2)N(C[C@@H]2CC[C@H]21)C[C@@]1(CCCc2cc(Cl)ccc21)CO3 (single isomer, unassigned) [30 (isomer 3)]	6.1	0.014	5.2			
CO[C@H]1/C=C/C[C@H](C)[C@@H](C)S(=O)(=O)NC(=O)c2ccc3c(c2)N(C[C@@H]2CC[C@H]21)C[C@@]1(CCCc2cc(Cl)ccc21)CO3 [AMG-176, reference compound]	0.335		0.138			F ([2]; PO 10 mg/kg vs IV 2 mg/kg): 97.9%; AUC(0-inf) ([2]; mouse, plasma, IV 2 mg/kg): 7450 ng·h/mL; AUC(0-t) ([2]; mouse, plasma, IV 2 mg/kg): 6800 ng·h/mL; clearance ([2]; mouse, plasma, IV 2 mg/kg): 4.5 mL/min/kg; half-life ([2]; mouse, plasma, IV 2 mg/kg): 7.2 h; Cmax ([2]; mouse, plasma, IV 2 mg/kg, read-out: C0/Cmax (C0)): 1550 ng/mL; MRT last ([2]; mouse, plasma, IV 2 mg/kg): 6.3 h; Vd ([2]; mouse, plasma, IV 2 mg/kg, read-out: Vss): 2.3 L/kg; AUC(0-inf) ([2]; mouse, plasma, PO 10 mg/kg): 36500 ng·h/mL; AUC(0-t) ([2]; mouse, plasma, PO 10 mg/kg): 32700 ng·h/mL; Tmax ([2]; mouse, plasma, PO 10 mg/kg): 1 h; half-life ([2]; mouse, plasma, PO 10 mg/kg): 7.4 h; Cmax ([2]; mouse, plasma, PO 10 mg/kg, read-out: C0/Cmax (Cmax)): 2500 ng/mL; MRT last ([2]; mouse, plasma, PO 10 mg/kg): 7.4 h; Vd/F ([2]; mouse, plasma, PO 10 mg/kg, read-out: Vz/F): 2.9 L/kg
CO[C@H]1C2CC(CCS(=O)(=O)NC(=O)c3ccc4c(c3)N(C[C@@H]3CC[C@H]31)C[C@@]1(CCCc3cc(Cl)ccc31)CO4)C2 [compound 2]	0.01		0.00604			
